Here are results for eleven molecules from patent US20250099420A1, “SMALL MOLECULE MODULATORS OF GPR139 COMPLEX” (University of Florida Research Foundation, Incorporated, priority 2022, published 2025).

As usually defined, the EC50 is the concentration at which the effect is half-maximal.

One series concerns parental HEK cells. Description: HEK parental Antagonist Counterscreen Assay (non-transfected cells, acetylcholine control). It counts as cell-based. Background: The purpose of a counterscreen is to sort out artefacts and off-target activity.
The target in series [1] is T1, GPR139 (Homo sapiens, UniProt Q6DWJ6).
T1 sequence (Q6DWJ6 1-353): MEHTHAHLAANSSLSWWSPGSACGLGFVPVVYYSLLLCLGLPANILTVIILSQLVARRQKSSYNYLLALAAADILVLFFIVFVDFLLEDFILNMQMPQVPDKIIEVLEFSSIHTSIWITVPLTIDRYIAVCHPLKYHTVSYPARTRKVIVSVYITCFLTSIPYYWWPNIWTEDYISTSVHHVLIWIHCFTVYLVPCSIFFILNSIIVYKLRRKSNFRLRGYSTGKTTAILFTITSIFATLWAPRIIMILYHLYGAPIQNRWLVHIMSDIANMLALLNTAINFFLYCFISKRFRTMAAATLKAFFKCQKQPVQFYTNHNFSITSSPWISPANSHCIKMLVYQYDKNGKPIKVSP
Briefly: GPR139 Agonist titration / agonist counterscreen assay (calcium detection, HEK-GPR139 cells). It counts as cell-based. Further details: expressed in transfected cells; host or cells: HEK Aequorin cells, Maxcyte transient transfection. The following applies: agonist counterscreen of the antagonists; for EC50: scientific notation, molarity, read-out: GRP139 Agonist activity EC50. The procedure:
GPR activity was assessed using a calcium detection assay. […] Negative control samples were treated with DMSO. […] Intracellular calcium was measured using Calcium 5.

For series [2], the target named is T1, GPR139. Description: GPR139 Antagonist titration assay (calcium detection, HEK-GPR139 cells, vs EC80 of S-JNJ-63533054). The following applies: for GPR139 Antagonist Activity Averaged Max % Response (±St. Dev.): activity relative to known control; for GPR139 Antagonist Activity Hill Slope: fitted dose-response curve.
Procedure: (§1) GPR activity was assessed using a calcium detection assay. GPR139 agonists stimulate an increase in intracellular calcium in HEK-GPR139 cells. Agonists increase the release of intracellular calcium, while antagonists decrease the release of intracellular calcium, as compared to an EC80 stimulation of the know agonist S-JNJ-63533054. The positive control for the agonist mode was cells treated with EC100 of known agonist S-JNJ-63533054. Negative control samples were treated with DMSO. The antagonist high control in cells was EC80 of S-JNJ-63533054+IC100 S-JNJ-3792165, while cells were treated with EC80 of S-JNJ-63533054+DMSO for the low control. Intracellular calcium was measured using Calcium 5.
(§2) HEK cells were transfected the DNA encoding GPR139 and incubated for 24 hours. 3000 cells/well in 3 μL HEPES and 1% DMSO were seeded into 1536-well plates. 3 μL Calcium 5 was then added to each well and cells were incubated for 60 min. at 37° C. in 5% CO2 and 95% relative humidity. Cells were pretreated with 50 nL DMSO (5 min. at room temperature in the dark) to stabilize response and desensitize cells to DMSO. A 5 second basal read was recorded and compounds in 30 nL were added to the cells, followed by a 150 second read.
(§3) B. Antagonist Mode: The “High Control” represented wells containing cells with GPR139+Antagonist IC100+Agonist EC80. “Low Control” represented wells containing cells with GPR139 with EC100 Agonist. “0% control” and sample field represented wells containing cells with GPR139 with EC80 Agonist with DMSO or compounds. The Z′ and S:B for this assay were calculated using the High Control and Low Control wells.
(§4) The HEK parental counterscreen utilized the same cells but not transfected with the plasmid. Acetylcholine was used in place of GPR139 agonist as the control compound. The cells were plated overnight, similar to the HEK antagonist counterscreen protocol.
(§5) The GPR139 Agonist and Antagonist titration assays employed the same reagents, protocols, and detection systems as the primary assays, but tested each as 10 point dose response starting at 676 nM concentration in triplicate with 1:3 dilutions. The HEK parental counterscreens utilized the same cells but not transfected with the plasmid. Acetylcholine was used in place of GPR139 agonist as the control compound. The cells were plated overnight, similar to the HEK antagonist counterscreen protocol.
(§6) For each test compound, percent activation was plotted against compound concentration. A four parameter equation describing a sigmoidal dose-response curve was then fitted with adjustable baseline using Assay Explorer software (Symyx Technologies Inc.).
In series [3] the target is T1, GPR139.
Procedure: as §1, §2, §3, §4, §5, §6

Where only a bound is given, the exact number is not on record here.

Consider `COc1ccc(C2=NN(C3CCCCCC3)C(=O)[C@@H]3CC=CC[C@@H]23)cc1OCCCCOc1ccc(-c2nn[nH]n2)cc1` [SR-05000022540], for which, in the series with parental HEK cells, the “HEK antagonist activity Averaged Max % Response (±St. Dev.)” value was 6.21 ± 10.10%. In addition, at GPR139 [1], the “GRP139 Agonist activity Averaged Max % Response (±St. Dev.)” value amounted to 96.44 ± 1.50%, the “GRP139 Agonist activity Hill Slope” value is given as 10.54 and the EC50 stood at 13.2 µM. Further, at GPR139 [2], the “GPR139 Antagonist Activity Ligand Efficiency” value turned out to be 0.18, the “GPR139 Antagonist Activity Averaged Max % Response (±St. Dev.)” value stood at 94.71 ± 3.14% and the “GPR139 Antagonist Activity Hill Slope” value was 0.39. For the same molecule, on GPR139 [3], the “GPR139 Antagonist Activity Lipophilic Efficiency (logD)” value is reported as −546.E−3 and the “GPR139 Antagonist Activity Lipophilic Efficiency (logP)” value is −780.8E−3.
For `Cc1cc(C(=O)N/N=C/c2cn(Cc3ccccc3)c3ccccc23)n[nH]1` [SR-01000110742], the “HEK antagonist activity Averaged Max % Response (±St. Dev.)” value with parental HEK cells is on record as 24.28 ± 7.95%. At GPR139 [1], the “GRP139 Agonist activity Averaged Max % Response (±St. Dev.)” value turned out to be 8.07 ± 1.27% and the EC50 was over 14.1 µM. Moreover, at GPR139 [2], the “GPR139 Antagonist Activity Ligand Efficiency” value worked out at 0.28, the “GPR139 Antagonist Activity Averaged Max % Response (±St. Dev.)” value was 90.37 ± 1.31% and the “GPR139 Antagonist Activity Hill Slope” value stood at 0.68. At GPR139 [3], the “GPR139 Antagonist Activity Lipophilic Efficiency (logD)” value turned out to be 1.95 and the “GPR139 Antagonist Activity Lipophilic Efficiency (logP)” value was determined as 1.94.
`CC(C)C(=O)N1CCN(c2nc(-c3ccccc3)c3c(c2C#N)CCCC3)CC1` [SR-01000000597]: the “HEK antagonist activity Averaged Max % Response (±St. Dev.)” value with parental HEK cells is on record as 14.40 ± 10.68%. In addition, on GPR139 [1], the “GRP139 Agonist activity Averaged Max % Response (±St. Dev.)” value was 3.20 ± 6.96% and the 50% effective concentration (EC50) was over 11.2 µM. On GPR139 [2], the “GPR139 Antagonist Activity Ligand Efficiency” value came out at 0.24, the “GPR139 Antagonist Activity Averaged Max % Response (±St. Dev.)” value stood at 54.78 ± 3.56% and the “GPR139 Antagonist Activity Hill Slope” value amounted to 1.21. Also, at GPR139 [3], the “GPR139 Antagonist Activity Lipophilic Efficiency (logD)” value is recorded as −52.3E−3 and the “GPR139 Antagonist Activity Lipophilic Efficiency (logP)” value is listed as −52.4E−3.
As for `Cc1ccc(-n2cc(-c3ccccc3)nc2SCC(=O)Nc2cccc(C)c2C)cc1` [SR-01000555460], the “HEK antagonist activity Averaged Max % Response (±St. Dev.)” value in the series with parental HEK cells was determined as 8.34 ± 10.04%. Moreover, at GPR139 [1], the “GRP139 Agonist activity Averaged Max % Response (±St. Dev.)” value is on record as 7.97 ± 3.98% and the EC50 is over 11.9 µM. Besides, at GPR139 [2], the “GPR139 Antagonist Activity Ligand Efficiency” value was 0.24, the “GPR139 Antagonist Activity Averaged Max % Response (±St. Dev.)” value is 69.58 ± 6.90% and the “GPR139 Antagonist Activity Hill Slope” value turned out to be 1.30. On GPR139 [3], the “GPR139 Antagonist Activity Lipophilic Efficiency (logD)” value is recorded as −1.9E+0 and the “GPR139 Antagonist Activity Lipophilic Efficiency (logP)” value was −1.9E+0.
Consider `COc1ccccc1-n1cc(-c2ccccc2)nc1SCC(=O)Nc1cccc(C)c1C` [SR-01000555431], for which, in the series with parental HEK cells, the “HEK antagonist activity Averaged Max % Response (±St. Dev.)” value is recorded as 3.15 ± 12.32%. Further, on GPR139 [1], the “GRP139 Agonist activity Averaged Max % Response (±St. Dev.)” value is on record as 12.88 ± 6.35% and the EC50 is over 13.2 µM. At GPR139 [2], the “GPR139 Antagonist Activity Ligand Efficiency” value turned out to be 0.26, the “GPR139 Antagonist Activity Averaged Max % Response (±St. Dev.)” value was found to be 78.69 ± 5.10% and the “GPR139 Antagonist Activity Hill Slope” value is 0.44. For the same molecule, on GPR139 [3], the “GPR139 Antagonist Activity Lipophilic Efficiency (logD)” value is listed as −548.5E−3 and the “GPR139 Antagonist Activity Lipophilic Efficiency (logP)” value is −548.6E−3.
As to `COc1ccc(-n2cc(-c3ccccc3)nc2SCC(=O)Nc2ccccc2C)cc1` [SR-01000555409], the “HEK antagonist activity Averaged Max % Response (±St. Dev.)” value in the series with parental HEK cells stood at 31.02 ± 1.30%. For the same molecule, at GPR139 [1], the “GRP139 Agonist activity Averaged Max % Response (±St. Dev.)” value is reported as −4.8E+0 ± 5.84 ^ % and the EC50 was over 13.6 µM. Further, at GPR139 [2], the “GPR139 Antagonist Activity Ligand Efficiency” value is 0.24, the “GPR139 Antagonist Activity Averaged Max % Response (±St. Dev.)” value is 86.26 ± 1.14% and the “GPR139 Antagonist Activity Hill Slope” value came to 0.79. In addition, at GPR139 [3], the “GPR139 Antagonist Activity Lipophilic Efficiency (logD)” value is −708.8E−3 and the “GPR139 Antagonist Activity Lipophilic Efficiency (logP)” value was −708.9E−3.
As for `Cc1cccc(-n2cc(-c3ccccc3)nc2SCC(=O)Nc2ccccc2C)c1` [SR-01000555475], the “HEK antagonist activity Averaged Max % Response (±St. Dev.)” value in the series on parental HEK cells is recorded as 9.07 ± 0.74%. At GPR139 [1], the “GRP139 Agonist activity Averaged Max % Response (±St. Dev.)” value is 13.90 ± 4.27% and the EC50 was over 13.2 µM. Moreover, on GPR139 [2], the “GPR139 Antagonist Activity Ligand Efficiency” value came to 0.28, the “GPR139 Antagonist Activity Averaged Max % Response (±St. Dev.)” value is 90.42 ± 3.10% and the “GPR139 Antagonist Activity Hill Slope” value came to 0.57. On GPR139 [3], the “GPR139 Antagonist Activity Lipophilic Efficiency (logD)” value was −768.6E−3 and the “GPR139 Antagonist Activity Lipophilic Efficiency (logP)” value is listed as −768.8E−3.
As for `O=C(CSc1nc(-c2ccccc2)cn1-c1ccccc1)Nc1ccc(F)cc1` [SR-01000555394], the “HEK antagonist activity Averaged Max % Response (±St. Dev.)” value in the series with parental HEK cells amounted to 31.37 ± 1.24%. Moreover, at GPR139 [1], the “GRP139 Agonist activity Averaged Max % Response (±St. Dev.)” value is −854E−3 ± 6.10 ^ % and the EC50 was over 14.5 µM. On GPR139 [2], the “GPR139 Antagonist Activity Ligand Efficiency” value is 0.25, the “GPR139 Antagonist Activity Averaged Max % Response (±St. Dev.)” value came to 71.06 ± 5.55% and the “GPR139 Antagonist Activity Hill Slope” value is recorded as 0.45. Besides, at GPR139 [3], the “GPR139 Antagonist Activity Lipophilic Efficiency (logD)” value is −672.3E−3 and the “GPR139 Antagonist Activity Lipophilic Efficiency (logP)” value is recorded as −672.4E−3.
For `Cc1ccc(-c2cn(-c3ccccc3)c(SCC(=O)Nc3ccccc3C)n2)cc1` [SR-01000555444], the “HEK antagonist activity Averaged Max % Response (±St. Dev.)” value in the series with parental HEK cells is reported as 6.69 ± 8.37%. At GPR139 [1], the “GRP139 Agonist activity Averaged Max % Response (±St. Dev.)” value is given as 4.27 ± 6.30% and the EC50 is over 11 µM. On GPR139 [2], the “GPR139 Antagonist Activity Ligand Efficiency” value came to 0.24, the “GPR139 Antagonist Activity Averaged Max % Response (±St. Dev.)” value was found to be 69.32 ± 5.67% and the “GPR139 Antagonist Activity Hill Slope” value is reported as 1.62. On GPR139 [3], the “GPR139 Antagonist Activity Lipophilic Efficiency (logD)” value is recorded as −1.5E+0 and the “GPR139 Antagonist Activity Lipophilic Efficiency (logP)” value is −1.5E+0.
`Cc1ccc(CNC(=O)CSc2nc3ccsc3c(=O)n2NC(=O)c2cccc(Br)c2)cc1` [SR-01000564946]: in the series on parental HEK cells, the “HEK antagonist activity Averaged Max % Response (±St. Dev.)” value was determined as 30.88 ± 11.77%. In addition, at GPR139 [1], the “GRP139 Agonist activity Averaged Max % Response (±St. Dev.)” value is 1.62 ± 7.06% and the EC50 is over 12.1 µM. On GPR139 [2], the “GPR139 Antagonist Activity Ligand Efficiency” value turned out to be 0.24, the “GPR139 Antagonist Activity Averaged Max % Response (±St. Dev.)” value was 86.39 ± 3.49% and the “GPR139 Antagonist Activity Hill Slope” value came to 0.71. For the same molecule, at GPR139 [3], the “GPR139 Antagonist Activity Lipophilic Efficiency (logD)” value came to 0.81 and the “GPR139 Antagonist Activity Lipophilic Efficiency (logP)” value was determined as 0.81.
Consider `CCc1ccccc1NC(=O)CSc1nnc(-c2ccccc2)c(-c2ccccc2)n1` [SR-01000581835], for which the “HEK antagonist activity Averaged Max % Response (±St. Dev.)” value with parental HEK cells worked out at 8.20 ± 4.35%. Besides, at GPR139 [1], the “GRP139 Agonist activity Averaged Max % Response (±St. Dev.)” value is 9.47 ± 9.31% and the concentration giving a half-maximal response (EC50) was over 12.1 µM. Further, at GPR139 [2], the “GPR139 Antagonist Activity Ligand Efficiency” value worked out at 0.23, the “GPR139 Antagonist Activity Averaged Max % Response (±St. Dev.)” value stood at 81.12 ± 9.72% and the “GPR139 Antagonist Activity Hill Slope” value was found to be 0.67. For the same molecule, at GPR139 [3], the “GPR139 Antagonist Activity Lipophilic Efficiency (logD)” value is given as −850.1E−3 and the “GPR139 Antagonist Activity Lipophilic Efficiency (logP)” value is given as −850.1E−3.
